Measured values from publication PMC7036909, “Discovery of Selective SIRT2 Inhibitors as Therapeutic Agents in B-Cell Lymphoma and Other Malignancies” (Molecules, 2020).
pIC50: −log10 of the molar value.

What was measured:
[1] = molecular target: T1, SIRT1 (Homo sapiens, UniProt Q96EB6); assay: SIRT-Glo enzyme inhibition assay, SIRT1; conditions: for inhibition at 50 µM: read-out: SIRT1 percentage inhibition at 50 µM compound, 50 µM compound
T1 sequence (Q96EB6 1-747): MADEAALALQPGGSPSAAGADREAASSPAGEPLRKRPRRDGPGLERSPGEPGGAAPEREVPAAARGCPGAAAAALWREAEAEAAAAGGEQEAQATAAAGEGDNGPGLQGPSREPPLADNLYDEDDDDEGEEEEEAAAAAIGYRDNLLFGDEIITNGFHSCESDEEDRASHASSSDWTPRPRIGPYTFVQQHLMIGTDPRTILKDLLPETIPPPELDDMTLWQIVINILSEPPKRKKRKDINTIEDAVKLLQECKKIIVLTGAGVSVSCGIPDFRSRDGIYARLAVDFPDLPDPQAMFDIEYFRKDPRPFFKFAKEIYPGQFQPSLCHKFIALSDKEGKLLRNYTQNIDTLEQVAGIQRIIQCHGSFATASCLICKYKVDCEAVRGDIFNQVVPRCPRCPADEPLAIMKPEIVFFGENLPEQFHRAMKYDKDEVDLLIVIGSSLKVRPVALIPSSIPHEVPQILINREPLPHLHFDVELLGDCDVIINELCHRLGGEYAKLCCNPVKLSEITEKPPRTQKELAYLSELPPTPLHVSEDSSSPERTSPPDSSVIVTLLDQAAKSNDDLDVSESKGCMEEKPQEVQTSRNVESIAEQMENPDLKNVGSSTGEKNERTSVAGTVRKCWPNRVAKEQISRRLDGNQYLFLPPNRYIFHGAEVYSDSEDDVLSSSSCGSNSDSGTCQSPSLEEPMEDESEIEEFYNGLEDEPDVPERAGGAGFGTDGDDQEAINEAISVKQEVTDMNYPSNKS
Method: (§1) SIRT1, SIRT2, and SIRT3 were purchased from Cayman Chemical. Enzyme inhibition assays were performed in 96-well black plates using the SIRT-Glo Assay (Promega Corp.) according to the manufacturer’s instructions. Compounds were dissolved in 100% DMSO and to make 5- or 10-mM stock solutions. For initial enzyme inhibition tests, 50 µM of inhibitory concentration was used. […] IC50 values were determined in triplicate and reported values are averages of two independent experiments.

[2] = molecular target: T2, SIRT2 (Homo sapiens, UniProt Q8IXJ6); assay: SIRT-Glo enzyme inhibition assay, SIRT2; conditions: for inhibition at 50 µM: read-out: SIRT2 percentage inhibition at 50 µM compound, 50 µM compound
T2 sequence (Q8IXJ6 1-389): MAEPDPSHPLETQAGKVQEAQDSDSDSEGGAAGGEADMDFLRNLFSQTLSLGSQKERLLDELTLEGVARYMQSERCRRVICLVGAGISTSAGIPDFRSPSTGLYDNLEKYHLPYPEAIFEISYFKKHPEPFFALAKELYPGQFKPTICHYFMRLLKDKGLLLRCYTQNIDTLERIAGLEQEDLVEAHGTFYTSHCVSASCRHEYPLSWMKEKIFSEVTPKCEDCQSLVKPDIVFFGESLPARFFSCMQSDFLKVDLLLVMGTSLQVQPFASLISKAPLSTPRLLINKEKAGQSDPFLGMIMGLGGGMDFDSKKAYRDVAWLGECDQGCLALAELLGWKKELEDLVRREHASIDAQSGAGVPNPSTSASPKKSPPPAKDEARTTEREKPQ
Method: as §1

Row | Molecule | SIRT1 percentage inhibition at 50 µM compound [1] | SIRT2 percentage inhibition at 50 µM compound [2] | pIC50 [1] | inhibition at 50 µM [1] | pIC50 ([2]; SIRT2 IC50) | inhibition at 50 µM [2]
1 | 2-[(6-Bromo-2-hydroxynaphthalen-1-yl)methyl]-1-[4-(trifluoromethyl)phenyl]hex-5-yne-1,3-dione [Compound 46] | 28% | 88% |  |  |  | 
2 | 2-[(6-Bromo-2-hydroxynaphthalen-1-yl)methyl]-3-(3-bromophenyl)-N-(furan-3-ylmethyl)-3-oxopropanamide [Compound 39] | 13% | 30% |  |  |  | 
3 | 2-[(6-Bromo-2-hydroxynaphthalen-1-yl)methyl]-3-(4-acetamidophenyl)-3-oxopropanamide [Compound 28] | 0.0% | 58% |  |  |  | 
4 | Cc1ccc(C(=O)C(Cc2c(O)ccc3cc(Br)ccc23)C(N)=O)cc1 (centres unmarked) [Compound 4, 2-[(6-Bromo-2-hydroxynaphthalen-1-yl)methyl]-3-(4-methylphenyl)-3-oxopropanamide] |  |  | < 3.70 | 9% | 4.89 | 89%
5 | Cc1cccc(C(=O)C(Cc2c(O)ccc3cc(Br)ccc23)C(N)=O)c1 (centres unmarked) [Compound 16, 2-[(6-Bromo-2-hydroxynaphthalen-1-yl)methyl]-3-(3-methylphenyl)-3-oxopropanamide] |  |  |  | 38% |  | 70%
6 | Cc1ccccc1C(=O)C(Cc1c(O)ccc2cc(Br)ccc12)C(N)=O (centres unmarked) [Compound 17, 2-[(6-Bromo-2-hydroxynaphthalen-1-yl)methyl]-3-(2-methylphenyl)-3-oxopropanamide] |  |  |  | 0% |  | 3%
7 | NC(=O)C(Cc1c(O)ccc2cc(Br)ccc12)C(=O)c1ccccc1 (centres unmarked) [Compound 18, 2-[(6-Bromo-2-hydroxynaphthalen-1-yl)methyl]-3-oxo-3-phenylpropanamide] |  |  |  | 0% |  | 57%
8 | COc1ccc(C(=O)C(Cc2c(O)ccc3cc(Br)ccc23)C(N)=O)cc1 (centres unmarked) [Compound 24, 2-[(6-Bromo-2-hydroxynaphthalen-1-yl)methyl]-3-(4-methoxy)-3-oxopropanamide] |  |  |  | 34% |  | 72%
9 | NC(=O)C(Cc1c(O)ccc2ccccc12)C(=O)c1cccc(Br)c1 (centres unmarked) [Compound 29, 3-(3-Bromophenyl)-2-[(2-hydroxynaphthalen-1-yl)methyl]-3-oxopropanamide] |  |  |  | 12% |  | 14%
10 | COc1ccc2c(CC(C(N)=O)C(=O)c3cccc(Br)c3)c(O)ccc2c1 (centres unmarked) [Compound 30, 3-(3-Bromophenyl)-2-[(2-hydroxy-6-methoxynaphthalen-1-yl)methyl]-3-oxopropanamide] |  |  |  | 0% |  | 32%

Second part, the molecule after the results:

Row | SIRT1 percentage inhibition at 50 µM compound [1] | SIRT2 percentage inhibition at 50 µM compound [2] | pIC50 [1] | inhibition at 50 µM [1] | pIC50 ([2]; SIRT2 IC50) | inhibition at 50 µM [2] | Molecule
11 |  |  |  | 0% |  | 37% | NC(=O)C(Cc1c(O)c(Br)cc2ccccc12)C(=O)c1cccc(Br)c1 (centres unmarked) [Compound 31, 2-[(3-Bromo-2-hydroxynaphthalen-1-yl)methyl]-3-(3-bromophenyl)-3-oxopropanamide]
12 |  |  |  | 0% |  | 16% | NC(=O)C(Cc1c(O)ccc2ccc(Br)cc12)C(=O)c1cccc(Br)c1 (centres unmarked) [Compound 32, 2-[(7-Bromo-2-hydroxynaphthalen-1-yl)methyl]-3-(3-bromophenyl)-3-oxopropanamide]
13 |  |  |  | 1% |  | 22% | O=C(c1cccc(Br)c1)C(Cc1c(O)ccc2cc(Br)ccc12)C(=O)N1CCOCC1 (centres unmarked) [Compound 38, 2-[(6-Bromo-2-hydroxynaphthalen-1-yl)methyl]-1-(3-bromophenyl)-3-(morpholin-4-yl)propane-1,3-dione]
14 |  |  |  | 0% |  | 53% | COCCNC(=O)C(Cc1c(O)ccc2cc(Br)ccc12)C(=O)c1cccc(Br)c1 (centres unmarked) [Compound 41, 2-[(6-Bromo-2-hydroxynaphthalen-1-yl)methyl]-3-(3-bromophenyl)-N-(2-methoxyethyl)-3-oxopropanamide]
15 |  |  |  | 3% |  | 6% | O=C(NCc1cccnc1)C(Cc1c(O)ccc2cc(Br)ccc12)C(=O)c1cccc(Br)c1 (centres unmarked) [Compound 42]
